Tests used:
[1] = system: mitochondria isolated from SHEP cells; test: Mitochondrial membrane potential of isolated mitochondria (DiOC6(3)); format: biochemical, human; settings: mitochondria from wild type or vector-only SHEP cells; 10 μg/ml betulinic acid, 30 min; FIG. 7, 12D
Experimental: For isolation of mitochondria, cells (3×10^5 per sample) were washed twice with ice-cold PBS and resuspended with five volumes of buffer A (50 mM Tris, 1 mM EGTA, 5 mM 2-mercaproethanol, 0.2% BSA, 10 mM KH2PO4, pH 7.6, 0.4 M sucrose) and allowed to swell on ice for 20 min. Cells were homogenized with 30 strokes of a Teflon homogenizer and centrifuged at 10000 g for 10 min at 4° C. The resulting pellets were resuspended in buffer B (10 mM KH2PO4, pH 7.2, […] mannitol, 0.1% BSA). Mitochondria were separated by sucrose gradient (lower layer: 1.6 M sucrose, 10 mM KH2PO4, pH 7.5, 0.1% BSA; upper layer: 1.2 M sucrose, 10 mM KH2PO4, pH 7.5, 0.1% BSA). Interphases containing mitochondria were washed with buffer B at 18000 g for 10 min at 4° C. and the resulting mitochondrial pellets were resuspended in buffer B. For preparation of cytosolic extracts, cells (1×10^8 per sample) were washed twice with ice-cold PBS, resuspended with one volume of buffer A and allowed to swell on ice for 20 min. Cells were homogenized with 30 strokes of a Dounce homogenizer and centrifuged at 15000×g for 15 min ax 4° C. The protein concentration of mitochondria or cytosolic extracts was determined by Bradford method (Bio-Rad). For isolation of nuclei, cells were washed twice in ice-cold PBS, resuspended in 10 volumes of buffer C (10 mM PIPES, pH 7.4, 10 mM KCl, 2 mM MgCl2, 1 mM DDT, 1 mM PMSF, 10 μM cytochalasin B), allowed to swell on ice for 20 min and homogenized using a Teflon homogenizer. Homogenates were layered over 30% sucrose in buffer C and centrifuged at 800 g for 10 min. The resulting nuclear pellets were resuspended in buffer C and washed three times. Nuclei were scored at −80° C. in aliquots of 10^8 nuclei/ml until required. AIF-containing mitochondrial supernatant was prepared as described in Susin et aL, 1997, J. Exp. Med. 186, 5-37 and Susin et al., 1996, J. Exp. Med. 184, 1331-41.
Mitochondria (5×10^5/ml) were treated with 10 μg/ml betulinic acid for 30 min, incubated with 3,3′-dihexyloxacarbocyanide iodide (DiOC6(3), 40 nM, Molecular Probes, Inc., Eugene, Oreg.) for 15 min at 37° C. and analyzed on a flow cytometer (FACS Vantage, Becton Dickinson). As a control, cells were treated with the uncoupling agent carbonyl cyanide m-chlorophenylhydrazone (mCICCP, 200 μM, Sigma).

[2] = system: SH-EP neuroblastoma cells; test: Specific apoptosis, FACS analysis of propidium iodide-stained nuclei; format: cell-based, human; settings: 10 μg/ml antibody fragments 1 h before drug; 10 μg/ml betulinic acid, 50 μg/ml VP-16, 10 μg/ml cisplatinum, 0.5 μg/ml doxorubicin, 72 h; FIG. 3B
Experimental: Quantification of DNA fragmentation was performed by FACS analysis of propidium iodide stained nuclei as described in Nicoletti et al, 1991, J. Immunol. Methods. 139: 271-279. Cells were analyzed for DNA content by flow. cytometry (FACScan, Becton Dickinson, Heidelberg, Germany) using CELLQuest software. Early apoptotic changes were identified by staining with biotinylated annexin V (Bender Med Systems, Vienna, Austria) following the manufacturer's instructions. Annexin V binds to exposed phosphatidylserine on the surface of apoptotic cells. Koopman et al, 1994, Blood. 84:1415-1420. Cells were analyzed by flow cytometry (FAC-Scan. Becton Dickinson) using CELLQuest software.
Cells were treated with 10 μg/ml betulinic acid for 72 h. Apoptosis was assessed by FACS analysis of propidium iodide-stained nuclei. Percentage of specific apoptosis was calculated as follows: experimental apoptosis (%) −spontaneous apoptosis in medium (%)/[100%−spontaneous apoptosis in medium (%)]×100%. […]
Cells were incubated for indicated times with doxorubicin, betulinic acid or anti-APO-1 and harvested by trypsinization using 0.05% trypsin and 0.02% EDTA without Ca^2+and Mg^2+(Life Technologies, Inc.). Quantification of DNA fragmentation was performed by FACS analysis of propidium iodide stained nuclei as previously described in Nicoletti et al., J. ImmunoL Methods 139:271-279, using CELLQuest software (Becton Dickinson, Heidelberg, Germany).
(§1) SHEP cells transfected with Bcl-2 or BCl-XL or a neomycin resistance vector only (Neo) were treated with 0.5 μg/ml Doxorubicin or 10 μg/ml Betulinic acid for 48 h (A) or 24 h (B and C). Cells transfected with a neomycin resistance vector only (Neo) were treated in the presence or absence of 50 μm BA or 60 μm zVAD-fmk. Nuclear apoptosis was determined by FACS analysis or propidium iodide-stained DNA content in intact cells (A) or in a CFS incubating isolated nuclei with mitochondria from cells treated with Doxo or betulinic acid (C). ΔΨm was determined by staining cells with the potential-sensitive fluorochrome DiOC6(3) (B).

[3] = system: isolated nuclei with mitochondria from SHEP cells; test: Cell-free system of apoptosis: nuclear fragmentation of isolated nuclei; format: biochemical, human; settings: for nuclear DNA fragmentation, mitochondria plus nuclei plus drug: Neo control mitochondria, 0.1-10 μg/ml betulinic acid or 5 mM atractyloside, 6 h, FIG. 8A, 8B
Experimental: (§2) For determination of nuclear fragmentation, nuclei (10^3/μl) were incubated with mitochondria (1 μg/μl) in buffer D (10 mM HEPES, pH 7.4, 50 mM NaCl, 2 mM MgCl2, 5 mM EGTA, 1 mM DDT, 2 mM ATP, 10 mM phosphocreatine, 50 μg/ml creatine kinase, 10 μM cytochalasin B) for 2 h at 37° C. Nuclei were stained with propidium iodide ([…]) and analyzed by flow cytometry. For determination of caspase activation, cytosolic extracts (2 μg/μl) were incubated with mitochondria (1 μg/μl), cytochrome c (0.1-100 μM) or AIF-containing mitochondrial supernatant (0.5 μg/μl) in buffer D for 2 h at 37° C. Partially purified AIF (cytochrome c-free) was prepared as previously described (0.5 mg/ml, Susin et al., 1997, J. Exp. Med. 186, 5-37; Susin et al., 1996, J. Exp. Med. 184, 1331-41). Proteins were separated by 15% SDS-PAGE and Western blot analysis was performed as described above.
Mitochondria isolated from SHEP cells, transfected with bcl-2 or bcl-XL or a neomycin resistance vector only, were incubated for 6 h with nuclei and 0.1-10 μg/ml betulinic acid (FIG. 8A) or 5 mM atractyloside (FIG. 8B) in the presence or absence of 50 μM bongkrekic acid or 60 μMZ-VAD-fnk. Nuclei incubated with either mitochondria from vector only cells or with betulinic acid were used as control. Nuclear apoptosis was determined by FACS analysis of propidium iodide stained DNA content.
SHEP cells transfected with bcl-2 or bcl-XL or a neomycin resistance vector only were treated with 10 μg/ml betulinic acid or 5 mM atractyloside for 6-24 h (FIG. 8C). Mitochondria were isolated and incubated with nuclei in the presence or absence of 50 μM bongkrekic acid or 60 μMZ-VAD-fmk. Nuclei incubated with either mitochondria front vector only cells or with betulinic acid were used as control. Nuclear apoptosis was determined by FACS analysis of propidium iodide stained DNA content.
Mitochondria isolated from SHEP cells transfected with bcl-2, Bcl-XL or a neomycin resistance vector only were treated with 10 μg/ml betulinic acid or 5 mM atractyloside for 0.5 h in the presence or absence of 50 μM bongkrekic acid or 60 μM zVAD-fmk. Mitochondrial supernatants obtained by high speed centrifugation were incubated with nuclei for 2 h at 37° C. Nuclei incubated with supernatants of untreated mitochondria were used as control.. Nuclear apoptosis was determined by FACS analysis of propidium iodide stained DNA content.
as §2, with “cytometry (Susin et al., 1997 Exp. Cell Res. 236:397-403).” for “cytometry.”, “(10” for “(0.1-100”, “C.” for “C. Partially purified AIF (cytochrome c-free) was prepared as previously described (0.5 mg/ml, Susin et al., 1997, J. Exp. Med. 186, 5-37; Susin et al., 1996, J. Exp. Med. 184, 1331-41).”, “before.” for “above.”
as §1

[4] = system: caspase-3, caspase-8 and PARP in cytosolic extracts of SHEP cells; test: Cell-free system of apoptosis: cleavage of caspases in cytosolic extracts by mitochondria; format: biochemical, human
Experimental: as §2, with “above. To confirm equal loading of mitochondrial protein, all Western blots were also developed with an antibody directed against a 60 kDa mitochondrial antigen (data not shown).” for “above.”
SHEP cells transfected with bcl-2 or Bcl-XL or a neomycin resistance vector only were treated with 10 μg/ml betulinic acid for 16 h. Mitochondria were isolated and incubated with cytosolic extracts for 6 h in the presence or absence of 60 μM zVAD-fmk (left panel, cells). Alternatively, mitochondria isolated from untreated cells were incubated with 10 μg/ml betulinic acid or 5 mM atractyloside together with cytosolic extracts for 6 h in the presence or absence of 60 μMZ-VAD-fmk (right panel, mitos, Atra). Cytosolic extracts incubated with mitochondria isolated from untreated cells or with untreated mitochondria were used as control. 40 μg protein per lane isolated front cell lysates were separated by 15% SDS-PAGE. Immunodetection of caspases-3, -8 and PARP protein was performed by mouse anti-caspase-3 mAb, mouse anti-caspase-8 mAb, rabbit anti-PARP polyclonal antibody and ECL.
SHEP cells treated with 10 μg/ml betulinic acid for indicated times. Mitochondria were isolated and incubated with cytosolic extracts for 6 h. Western blot analysis was performed as described above.
Mitochondria isolated from SHEP cells transfected with bcl-2 or Bcl-XL or a neomycrn resistance vector only were treated with 10 μg/ml betulinic acid or 5 mM atractyloside for 0.5 h in the presence or absence of 50 μM bongkrekic acid or 60 μM zVAD-fmk. Mitochondrial supernatants obtained by high speed centrifugation were incubated with cytosolic extracts for 6 h at 37° C. Cytosolic extracts incubated with supernatants of untreated mitochondria were used as control. Western blot analysis was performed as described for FIG. 9A.
as §2, with “cytometry (Susin et al., 1997 Exp. Cell Res. 236:397-403).” for “cytometry.”, “(10” for “(0.1-100”, “C.” for “C. Partially purified AIF (cytochrome c-free) was prepared as previously described (0.5 mg/ml, Susin et al., 1997, J. Exp. Med. 186, 5-37; Susin et al., 1996, J. Exp. Med. 184, 1331-41).”, “before.” for “above.”
SHEP cells transfected with Bcl-2 or Bcl-XL or a neomycin resistance vector only (Neo) were treated (Lanes+) with 0.5 μg/ml Doxo or 10 μg/ml Bet A for 16 h. Mitochondria were isolated and incubated with cytosolic extracts for 6 h. in the presence or absence of 60 μm Z-VAD.fmk. Western blot analysis was performed as described in FIG. 14A.

| Compound | Δψm of isolated mitochondria [1] | effect of CD95 blockage by F(ab′)2 anti-APO-1 on drug-induced apoptosis [2] | nuclear DNA fragmentation, mitochondria plus nuclei plus drug [3] | caspase cleavage in cytosolic extracts by supernatants from treated mitochondria ([4]; 10 μg/ml betulinic acid or 5 mM atractyloside 0.5 h, extracts 6 h, FIG. 10A) | caspase cleavage in cytosolic extracts by treated isolated mitochondria ([4]; 10 μg/ml betulinic acid or 5 mM atractyloside, 6 h, FIG. 9A) | DNA fragmentation by supernatants from treated mitochondria ([3]; 10 μg/ml betulinic acid or 5 mM atractyloside 0.5 h, supernatant with nuclei 2 h, FIG. 10B) |
| --- | --- | --- | --- | --- | --- | --- |
| COc1cc([C@@H]2c3cc4c(cc3[C@@H](O[C@@H]3O[C@@H]5CO[C@@H](C)O[C@H]5[C@H](O)[C@H]3O)[C@H]3COC(=O)[C@H]23)OCO4)cc(OC)c1O [VP-16, etoposide] | did not induce mitochondrial perturbations | markedly reduced | No DNA fragmentation was observed |  |  |  |
| N.N.[Cl][Pt][Cl] [cisplatinum] | did not induce mitochondrial perturbations | markedly reduced | No DNA fragmentation was observed |  |  |  |
| C=C1[C@@H]2CC[C@H]3[C@]4(C)C[C@H](O[C@@H]5O[C@H](CO)[C@@H](OS(=O)(=O)O)[C@H](OS(=O)(=O)O)[C@H]5OC(=O)CC(C)C)C[C@@H](C(=O)O)[C@H]4CC[C@]3(C2)[C@H]1O [atractyloside] |  |  | had the same effect as betulinic acid | caspase activation and nuclear fragmentation were observed | led to activation of caspases | caspase activation and nuclear fragmentation were observed |
